Assays:
Settings in all cases: exposure time: 72 h
E13 [1] = patient-derived glioblastoma stem cells of classical subtype; assay: surviving fraction (nuclei count normalised to DMSO); higher = more cells surviving (less toxic)
E21 [2] = patient-derived glioblastoma stem cells of mesenchymal subtype; assay: as above
E28 [3] = patient-derived glioblastoma stem cells of classical subtype; assay: as above
E31 [4] = patient-derived glioblastoma stem cells of proneural subtype; assay: as above
E34 [5] = patient-derived glioblastoma stem cells of proneural subtype; assay: as above
E57 [6] = patient-derived glioblastoma stem cells of mesenchymal subtype; assay: as above
FT3469 [7] = normal neural stem cell line; assay: as above
E13 [8] = assay: phenotypic distance (Euclidean, principal components) from DMSO controls (arbitrary units); higher = stronger morphological change
E21 [9] = assay: as above
E28 [10] = assay: as above
E31 [11] = assay: as above
E34 [12] = assay: as above
E57 [13] = assay: as above
FT3469 [14] = assay: as above
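For phenotypic distance (Euclidean, principal components) from DMSO controls in this document: cell Painting imaging in 384-well plates, CellProfiler features reduced to at least 20 principal components, Euclidean distance versus same-plate DMSO vehicle wells (0.1% v/v), median over six images per well.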
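For surviving fraction (nuclei count normalised to DMSO) in this document: nuclei counted by high-content imaging of Hoechst-stained cells in laminin-coated 384-well plates, relative to 0.1% DMSO vehicle wells, with staurosporine as cell-death control.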

COc1cc([C@@H]2c3cc4c(cc3[C@@H](O[C@@H]3O[C@@H]5CO[C@@H](c6cccs6)O[C@H]5[C@H](O)[C@H]3O)[C@H]3COC(=O)[C@H]23)OCO4)cc(OC)c1O [Teniposide]
Settings	phenotypic distance	surviving fraction
E13 [1], 4.1 nM	–	0.713
E13 [1], 12.3 nM	–	0.528
E13 [1], 37 nM	–	0.45
E13 [1], 111.1 nM	–	0.412
E13 [1], 333.3 nM	–	0.351
E13 [1], 1000 nM	–	0.305
E13 [1], 3000 nM	–	0.174
E13 [8], 4.1 nM	1.43	–
E13 [8], 12.3 nM	3.27	–
E13 [8], 37 nM	4.96	–
E13 [8], 111.1 nM	5.68	–
E13 [8], 333.3 nM	5.77	–
E13 [8], 1000 nM	5.12	–
E13 [8], 3000 nM	6.24	–
E21 [2], 4.1 nM	–	0.902
E21 [2], 12.3 nM	–	0.682
E21 [2], 37 nM	–	0.589
E21 [2], 111.1 nM	–	0.552
E21 [2], 333.3 nM	–	0.376
E21 [2], 1000 nM	–	0.145
E21 [2], 3000 nM	–	0.177
E21 [9], 4.1 nM	0.843	–
E21 [9], 12.3 nM	2.77	–
E21 [9], 37 nM	3.95	–
E21 [9], 111.1 nM	5.39	–
E21 [9], 333.3 nM	5.06	–
E21 [9], 1000 nM	6.2	–
E21 [9], 3000 nM	6.57	–
E28 [3], 4.1 nM	–	0.491
E28 [3], 12.3 nM	–	0.379
E28 [3], 37 nM	–	0.428
E28 [3], 111.1 nM	–	0.351
E28 [3], 333.3 nM	–	0.32
E28 [3], 1000 nM	–	0.269
E28 [3], 3000 nM	–	0.314
E28 [10], 4.1 nM	3.11	–
E28 [10], 12.3 nM	3.7	–
E28 [10], 37 nM	3.52	–
E28 [10], 111.1 nM	3.17	–
E28 [10], 333.3 nM	3.7	–
E28 [10], 1000 nM	3.58	–
E28 [10], 3000 nM	3.53	–
E31 [4], 4.1 nM	–	0.376
E31 [4], 12.3 nM	–	0.25
E31 [4], 37 nM	–	0.241
E31 [4], 111.1 nM	–	0.201
E31 [4], 333.3 nM	–	0.2
E31 [4], 1000 nM	–	0.243
E31 [4], 3000 nM	–	0.191
E31 [11], 4.1 nM	4.09	–
E31 [11], 12.3 nM	2.97	–
E31 [11], 37 nM	3.3	–
E31 [11], 111.1 nM	3.9	–
E31 [11], 333.3 nM	2.97	–
E31 [11], 1000 nM	2.67	–
E31 [11], 3000 nM	3.37	–
E34 [5], 4.1 nM	–	0.758
E34 [5], 12.3 nM	–	0.677
E34 [5], 37 nM	–	0.577
E34 [5], 111.1 nM	–	0.57
E34 [5], 333.3 nM	–	0.501
E34 [5], 1000 nM	–	0.447
E34 [5], 3000 nM	–	0.373
E34 [12], 4.1 nM	1.81	–
E34 [12], 12.3 nM	2.04	–
E34 [12], 37 nM	3.24	–
E34 [12], 111.1 nM	3.96	–
E34 [12], 333.3 nM	4.04	–
E34 [12], 1000 nM	2.46	–
E34 [12], 3000 nM	2.97	–
E57 [6], 4.1 nM	–	0.727
E57 [6], 12.3 nM	–	0.418
E57 [6], 37 nM	–	0.323
E57 [6], 111.1 nM	–	0.212
E57 [6], 333.3 nM	–	0.167
E57 [6], 1000 nM	–	0.178
E57 [6], 3000 nM	–	0.148
E57 [13], 4.1 nM	1.82	–
E57 [13], 12.3 nM	4.96	–
E57 [13], 37 nM	6.24	–
E57 [13], 111.1 nM	8.39	–
E57 [13], 333.3 nM	8.07	–
E57 [13], 1000 nM	6.94	–
E57 [13], 3000 nM	6.61	–
FT3469 [7], 4.1 nM	–	0.636
FT3469 [7], 12.3 nM	–	0.643
FT3469 [7], 37 nM	–	0.644
FT3469 [7], 111.1 nM	–	0.62
FT3469 [7], 333.3 nM	–	0.595
FT3469 [7], 1000 nM	–	0.629
FT3469 [7], 3000 nM	–	0.544
FT3469 [14], 4.1 nM	1.68	–
FT3469 [14], 12.3 nM	2.44	–
FT3469 [14], 37 nM	2.6	–
FT3469 [14], 111.1 nM	2.26	–
FT3469 [14], 333.3 nM	1.97	–
FT3469 [14], 1000 nM	1.78	–
FT3469 [14], 3000 nM	2.12	–

Reference: the supplement of paper PMC13207355
